Source: patent US8173635B2, “Kinase inhibitors” (Vertex Pharmaceuticals Incorporated, priority 2007, dated 2012)

How the values were obtained:
Type in all cases: biochemical
PKC alpha kinase = PKC alpha kinase (Homo sapiens, UniProt P17252); test: PKC alpha kinase inhibition, coupled-enzyme NADH absorbance assay (Ki); conditions: 130 μM ATP, 4.5 nM PKC alpha, 30° C.; read-out: Ki PKC alpha
PKC delta kinase = PKC delta kinase (Homo sapiens, UniProt Q05655); test: PKC delta kinase inhibition, coupled-enzyme NADH absorbance assay (Ki); conditions: 150 μM ATP, 46 nM PKC delta, 30° C.; read-out: Ki PKC delta
Sequence of PKC delta kinase (Q05655 whole entry): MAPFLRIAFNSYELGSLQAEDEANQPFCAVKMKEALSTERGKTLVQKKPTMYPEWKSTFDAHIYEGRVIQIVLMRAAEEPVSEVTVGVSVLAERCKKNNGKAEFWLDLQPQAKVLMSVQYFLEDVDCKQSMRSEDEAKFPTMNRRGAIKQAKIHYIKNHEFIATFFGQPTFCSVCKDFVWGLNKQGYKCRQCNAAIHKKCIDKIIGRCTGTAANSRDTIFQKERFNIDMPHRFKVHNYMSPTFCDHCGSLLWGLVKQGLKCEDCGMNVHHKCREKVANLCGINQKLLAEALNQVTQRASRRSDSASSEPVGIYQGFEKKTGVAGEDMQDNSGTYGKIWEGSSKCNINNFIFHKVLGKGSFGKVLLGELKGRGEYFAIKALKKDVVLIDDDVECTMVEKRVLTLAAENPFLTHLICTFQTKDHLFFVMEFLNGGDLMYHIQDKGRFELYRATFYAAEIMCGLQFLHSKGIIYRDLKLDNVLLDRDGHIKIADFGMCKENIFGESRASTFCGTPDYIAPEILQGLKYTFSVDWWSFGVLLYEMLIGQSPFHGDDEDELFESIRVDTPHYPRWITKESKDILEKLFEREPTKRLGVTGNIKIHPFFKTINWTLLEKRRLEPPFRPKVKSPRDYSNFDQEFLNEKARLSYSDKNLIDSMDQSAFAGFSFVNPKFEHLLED
In short: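 Assay buffer was 100 mM HEPES pH 7.5, 10 mM MgCl2, 25 mM NaCl, 0.1 mM EDTA, 0.01% Brij. Enzyme buffer was equilibrated with compound in DMSO for 10 min at 30 °C. Ki values were derived by non-linear regression of initial rate data.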

PKC theta kinase = PKC theta kinase (Homo sapiens, UniProt Q04759); test: PKC theta kinase inhibition, coupled-enzyme NADH absorbance assay (Ki); conditions: 240 μM ATP, 18 nM PKC theta, 30° C.; read-out: Ki PKC theta
Sequence of PKC theta kinase (Q04759 whole entry): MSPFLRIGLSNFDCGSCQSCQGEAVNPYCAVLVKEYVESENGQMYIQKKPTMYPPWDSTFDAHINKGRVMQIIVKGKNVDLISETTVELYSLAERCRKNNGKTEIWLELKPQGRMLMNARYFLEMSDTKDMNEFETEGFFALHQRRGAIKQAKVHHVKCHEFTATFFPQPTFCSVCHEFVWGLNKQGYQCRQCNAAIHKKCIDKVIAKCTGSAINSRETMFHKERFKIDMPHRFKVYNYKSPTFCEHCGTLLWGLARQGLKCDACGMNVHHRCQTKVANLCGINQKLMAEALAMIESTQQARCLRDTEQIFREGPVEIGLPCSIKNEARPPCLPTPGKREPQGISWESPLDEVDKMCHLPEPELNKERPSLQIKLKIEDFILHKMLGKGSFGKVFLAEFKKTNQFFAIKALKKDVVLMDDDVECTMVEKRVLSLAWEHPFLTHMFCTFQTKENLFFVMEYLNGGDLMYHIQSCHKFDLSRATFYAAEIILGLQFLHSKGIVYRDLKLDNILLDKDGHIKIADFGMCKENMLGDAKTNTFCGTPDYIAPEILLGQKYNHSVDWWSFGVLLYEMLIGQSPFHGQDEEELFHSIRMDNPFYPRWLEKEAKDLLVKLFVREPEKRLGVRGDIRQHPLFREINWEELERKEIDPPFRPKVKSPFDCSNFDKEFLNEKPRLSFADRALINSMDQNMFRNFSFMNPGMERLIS
In short: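 Enzyme and compound equilibrated 10 min at 30 °C before reaction in HEPES pH 7.5 buffer with MgCl2, NaCl, EDTA and Brij. Activity tracked as NADH loss at 340 nm through a coupled system. Initial-rate data fitted by non-linear regression to give Ki.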

SMILES | Ki (PKC alpha kinase) | Ki (PKC delta kinase) | Ki (PKC theta kinase)
CC(C)(C)c1n[nH]c2nccc(-c3cc(Br)cc(C(C)(C)C#N)c3)c12 [Compound 112] | > 1200 nM | > 2000 nM | > 700 nM
CCC(C)(C#N)c1cc(Cl)cc(-c2ccnc3[nH]ncc23)c1 (stereo not drawn) [Compound 87] | < 2800 nM | < 2800 nM | < 500 nM
NCC1(c2cccc(-c3ccnc4[nH]ncc34)c2)CCC(F)(F)CC1 [Compound 181] | < 2800 nM | < 2800 nM | < 500 nM
CC(C)C(O)c1cc(-c2ccnc3[nH]ncc23)cc(C(C)(C)C#N)c1 (stereo not drawn) [Compound 19] | > 2800 nM | > 2800 nM | < 500 nM
NCC1(c2cccc(-c3ccnc4[nH]ncc34)c2)CCOCC1 [Compound 157] | < 2800 nM | < 2800 nM | < 50 nM
Cc1cc(-c2ccnc3[nH]nc(C(F)(F)F)c23)cc(C2(CN)CCOCC2)c1 [Compound 275] | < 500 nM | < 500 nM | < 50 nM
N[C@H]1CCC[C@@H]1c1cccc(-c2ccnc3[nH]ncc23)c1 [Compound 251] | > 1200 nM | > 1200 nM | < 500 nM
CC/C=C\C1(c2cccc(-c3ccnc4[nH]ncc34)c2)CCNC1 (stereo not drawn) [Compound 198] | < 500 nM | < 500 nM | < 50 nM
N#CCCc1cc(-c2ccnc3[nH]ncc23)cc(C2(C#N)CC2)c1 [Compound 240] | > 1200 nM | > 2000 nM | < 500 nM
CCc1n[nH]c2nccc(-c3cccc(CN)c3)c12 [Compound 270] | > 1200 nM | > 1200 nM | > 700 nM
CCC(C)(C#N)c1cc(-c2ccnc3[nH]ncc23)cc(C(F)(F)CCC2CCCCC2)c1 (stereo not drawn) [Compound 118] | > 1200 nM | > 2000 nM | > 700 nM
CCC(C)(CN)c1cc(F)cc(-c2ccnc3[nH]nc(Cl)c23)c1 (stereo not drawn) [Compound 258] | < 50 nM | < 50 nM | < 50 nM
CCC(F)(CN)c1cc(C)cc(-c2ccnc3[nH]nc(C(F)(F)F)c23)c1 (stereo not drawn) [Compound 293] | < 500 nM | < 500 nM | < 50 nM
NCC1(c2cccc(-c3ccnc4[nH]nc(C(F)(F)F)c34)c2)CCOCC1 [Compound 214] | < 500 nM | < 500 nM | < 50 nM
CCC(C)(C#N)c1cc(-c2ccnc3[nH]ncc23)cc(C(C)(F)F)c1 (stereo not drawn) [Compound 111] | < 500 nM | < 2800 nM | < 50 nM
NCC1(c2cccc(-c3ccnc4[nH]nc(C(F)(F)F)c34)c2)CCC1 [Compound 280] | < 500 nM | < 500 nM | < 50 nM

SMILES | Ki (PKC alpha kinase) | Ki (PKC delta kinase) | Ki (PKC theta kinase)
CCC1(c2cc(C)cc(-c3ccnc4[nH]nc(C(F)(F)F)c34)c2)CNC(=O)O1 (stereo not drawn) [Compound 292] | < 500 nM | > 1200 nM | < 50 nM
NCC1(c2cc(F)cc(-c3ccnc4[nH]nc(Cl)c34)c2)CCC1 [Compound 255] | < 50 nM | < 50 nM | < 50 nM
NCC1(c2cccc(-c3ccnc4[nH]nc(C(F)(F)F)c34)c2)CC1 [Compound 278] | < 500 nM | < 500 nM | < 50 nM
CCC(C)(C#N)c1cc(CCC(F)F)cc(-c2ccnc3[nH]ncc23)c1 (stereo not drawn) [Compound 108] | > 1200 nM | > 2000 nM | < 500 nM
CCCc1cc(-c2ccnc3[nH]ncc23)cc(C(C)(C)CC#N)c1 [Compound 218] | < 2800 nM | > 2000 nM | < 500 nM
N#CC1(c2cccc(-c3ccnc4[nH]ncc34)c2)CCC1 [Compound 73] | < 2800 nM | < 2800 nM | < 500 nM
CC(CC#N)c1cc(Br)cc(-c2ccnc3[nH]ncc23)c1 (stereo not drawn) [Compound 238] | < 2800 nM | < 2800 nM | < 500 nM
NCc1cccc(-c2ccnc3[nH]nc(C(F)(F)F)c23)c1 [Compound 294] | > 1200 nM | > 1200 nM | < 500 nM
CC(C)(C#N)c1cccc(-c2ccnc3[nH]ncc23)n1 [Compound 1, 2-(6-(1H-pyrazolo[3,4-b]pyridin-4-yl)pyridin-2-yl)-2-methylpropanenitrile] | < 500 nM | < 500 nM | < 50 nM
CCCc1cc(-c2ccnc3[nH]ncc23)cc(C2(CC#N)CCC2)c1 [Compound 125] | > 1200 nM | > 2000 nM | < 500 nM
NC(CCC1CCCCC1)c1cccc(-c2ccnc3[nH]ncc23)c1 (stereo not drawn) [Compound 252] | > 1200 nM | > 1200 nM | > 700 nM
CCC(N)c1cccc(-c2ccnc3[nH]nc(C(F)(F)F)c23)c1 (stereo not drawn) [Compound 309] | < 2800 nM | < 2800 nM | < 50 nM
CCC(C)(C#N)c1cc(CO)cc(-c2ccnc3[nH]ncc23)c1 (stereo not drawn) [Compound 121] | > 1200 nM | > 2000 nM | < 500 nM
C=CCc1cc(-c2ccnc3[nH]ncc23)cc(C(C)(C)C#N)c1 [Compound 67] | < 2800 nM | > 2800 nM | < 500 nM
CCC(C)(C#N)c1cc(-c2ccnc3[nH]ncc23)cc(C(F)(F)CCC2CCCC2)c1 (stereo not drawn) [Compound 117] | > 1200 nM | > 2000 nM | > 700 nM

Continued, values first:

Ki (PKC alpha kinase) | Ki (PKC delta kinase) | Ki (PKC theta kinase) | SMILES
> 2800 nM | > 2800 nM | < 500 nM | CCC(C)(CN)c1cc(CC(C)C)cc(-c2ccnc3[nH]ncc23)c1 (stereo not drawn) [Compound 137]
< 2800 nM | < 2800 nM | < 50 nM | CC(CN)(Cc1cscn1)c1cccc(-c2ccnc3[nH]ncc23)c1 (stereo not drawn) [Compound 170]
< 2800 nM | < 2800 nM | < 500 nM | CCC(C#N)c1cccc(-c2ccnc3[nH]ncc23)c1 (stereo not drawn) [Compound 66]
< 2800 nM | < 500 nM | < 50 nM | COCCCC(C)(CN)c1cccc(-c2ccnc3[nH]ncc23)c1 (stereo not drawn) [Compound 169]
< 2800 nM | < 2800 nM | < 500 nM | C=CCc1cc(-c2ccnc3[nH]ncc23)cc(C(C)(C)CN)c1 [Compound 52]
> 1200 nM | > 2000 nM | > 700 nM | CC(C#N)(Cc1ccccn1)c1cccc(-c2ccnc3[nH]ncc23)c1 (stereo not drawn) [Compound 115]
> 2800 nM | > 2800 nM | < 2800 nM | CC(C)(C#N)c1cc(CN)cc(-c2ccnc3[nH]ncc23)c1 [Compound 76]
< 500 nM | < 2800 nM | < 50 nM | CCC(C)(CN)c1cc(CCCF)cc(-c2ccnc3[nH]ncc23)c1 (stereo not drawn) [Compound 160]
< 500 nM | < 2800 nM | < 50 nM | CCC(C)(CO)c1cc(C)cc(-c2ccnc3[nH]ncc23)c1 (stereo not drawn) [Compound 241]
< 500 nM | < 2800 nM | < 50 nM | CCC(C)(CN)c1cc(CCCOC)cc(-c2ccnc3[nH]ncc23)c1 (stereo not drawn) [Compound 164]
< 2800 nM | < 500 nM | < 50 nM | NCC1(c2cccc(-c3ccnc4[nH]ncc34)c2)CCCC1 [Compound 50]
> 2800 nM | > 2800 nM | < 500 nM | CC(O)c1cc(-c2ccnc3[nH]ncc23)cc(C(C)(C)CN)c1 (stereo not drawn) [Compound 39]
> 2800 nM | > 2800 nM | < 500 nM | CC(C)(C#N)c1cc(NCCN)cc(-c2ccnc3[nH]ncc23)c1 [Compound 17]
< 500 nM | < 2800 nM | < 50 nM | CCc1cc(-c2ccnc3[nH]ncc23)cc(C(C)(CC)CN)c1 (stereo not drawn) [Compound 131]
< 500 nM | < 500 nM | < 50 nM | CCC(C)(CNC)c1cccc(-c2ccnc3[nH]ncc23)c1 (stereo not drawn) [Compound 141]
> 1200 nM | < 2800 nM | < 500 nM | CC(N)c1cccc(-c2ccnc3[nH]ncc23)c1 (stereo not drawn) [Compound 246]
< 2800 nM | < 2800 nM | < 500 nM | CCCc1cc(-c2ccnc3[nH]ncc23)cc(C(C)(C)CN)c1 [Compound 42]
< 500 nM | < 500 nM | < 50 nM | CCC(C)(CN)c1cc(-c2ccnc3[nH]ncc23)cc(C(C)(F)F)c1 (stereo not drawn) [Compound 165]
< 500 nM | < 2800 nM | < 50 nM | CCC(F)(CN)c1cc(C)cc(-c2ccnc3[nH]ncc23)c1 (stereo not drawn) [Compound 227]
< 500 nM | < 2800 nM | < 50 nM | CCSc1cc(-c2ccnc3[nH]ncc23)cc(C(C)(CC)CN)c1 (stereo not drawn) [Compound 166]
< 50 nM | < 50 nM | < 50 nM | CCc1n[nH]c2nccc(-c3cccc(C(C)(CC)CN)c3)c12 (stereo not drawn) [Compound 264]
< 2800 nM | < 2800 nM | < 500 nM | CCc1ccc(-c2ccnc3[nH]ncc23)cc1C(C)(C)CN [Compound 132]
> 1200 nM | > 1200 nM | < 500 nM | CCC(N)c1cccc(-c2ccnc3[nH]ncc23)c1 (stereo not drawn) [Compound 245]
< 2800 nM | < 2800 nM | < 500 nM | CC(C)C(C)(C#N)c1cccc(-c2ccnc3[nH]ncc23)c1 (stereo not drawn) [Compound 70]
< 2800 nM | > 2000 nM | < 500 nM | CCC(F)c1cc(-c2ccnc3[nH]ncc23)cc(C(C)(CC)CN)c1 (stereo not drawn) [Compound 158]
< 500 nM | < 500 nM | < 50 nM | CC[C@@](C)(CN)c1cccc(-c2ccnc3[nH]ncc23)c1 [Compound 152]
> 1200 nM | > 2000 nM | < 500 nM | CC(CN)(Cc1ccccn1)c1cccc(-c2ccnc3[nH]ncc23)c1 (stereo not drawn) [Compound 175]
< 2800 nM | < 2800 nM | < 50 nM | CCC(C)(CN)c1cc(-c2ccnc3[nH]ncc23)cc(C(C)F)c1 (stereo not drawn) [Compound 159]
